Experimental data reported in US11771738B2 (Zoetis Services LLC, priority 2018, dated 2023).
Where two headings read alike, the source gives them in different places.

Legend:
Type in all cases: cell-based
[1] = system: third stage larvae of Haemonchus contortus; test: Haemonchus contortus, Larvae Stage 3 (HcL3) In Vitro Assay; conditions: Haemonchus contortus, 96 h
D. immitis L4 larvae = test: Dirofilaria immitis, L4 Stage (DiL4) In Vitro Assay; conditions: for minimal effective concentration: Dirofilaria immitis, 72 h, read-out: DiL4 MED, Minimum Effective Dose, D. immitis L4 larvae motility, in vitro; for DiMf/DiL4: larval stage selectivity, ratio of DiMf MED to DiL4 MED
[2] = system: microfilariae of Dirofilaria immitis; test: Dirofilaria immitis, Microfilaria (DiMf) In Vitro Assay; conditions: Dirofilaria immitis, 72 h, read-out: DiMf MED, Minimum Effective Dose, D. immitis microfilariae motility, in vitro
[3] = read-out: HcL3 MED, Haemonchus contortus third stage larvae in vitro, class mark appended to the Ex # in Table 3
[4] = read-out: HcL3 MED, Minimum Effective Dose, H. contortus third stage larvae, approximately 96 hours
[5] = read-out: HcL3 MED, approximately 96 hours incubation, multiple-resistant field isolate

Cc1cnccc1Cc1ccc(C[C@H]2OC(=O)[C@H](CC(C)C)N(C)C(=O)[C@@H](C)OC(=O)[C@H](CC(C)C)N(C)C(=O)[C@@H](Cc3ccc(Cc4ccncc4F)cc3)OC(=O)[C@H](CC(C)C)N(C)C(=O)[C@@H](C)OC(=O)[C@H](CC(C)C)N(C)C2=O)cc1 [Example 3-309, (3S,6R,9S,12R,15S,18R,21S,24R)-6-(4-((3-fluoropyridin-4-yl)methyl)benzyl)-3,9,15,21-tetraisobutyl-4,10,12,16,22,24-hexamethyl-18-(4-((3-methylpyridin-4-yl)methyl)benzyl)-1,7,13,19-tetraoxa-4,10,16,22-tetraazacyclotetracosan-2,5,8,11,14,17,20,23-octaone]
minimal effective concentration [1, 3]: 1 to 3.3 µM
minimal effective concentration [1, 4]: 3.3 µM
minimal effective concentration (D. immitis L4 larvae): 0.00055 µM
DiMf/DiL4 (D. immitis L4 larvae): 5.5
minimal effective concentration [2]: 0.003 µM

CCc1ncncc1Cc1ccc(C[C@H]2OC(=O)[C@H](CC(C)C)N(C)C(=O)[C@@H](C)OC(=O)[C@H](CC(C)C)N(C)C(=O)[C@@H](Cc3ccc(Cc4cncnc4CC)cc3)OC(=O)[C@H](CC(C)C)N(C)C(=O)[C@@H](C)OC(=O)[C@H](CC(C)C)N(C)C2=O)cc1 [Example 3-310, (3S,6R,9S,12R,15S,18R,21S,24R)-6,18-bis(4-((4-ethylpyrimidin-5-yl)methyl)benzyl)-3,9,15,21-tetraisobutyl-4,10,12,16,22,24-hexamethyl-1,7,13,19-tetraoxa-4,10,16,22-tetraazacyclotetracosan-2,5,8,11,14,17,20,23-octaone]
minimal effective concentration [1, 3]: < 1 µM
minimal effective concentration [1, 4]: 1 µM
minimal effective concentration [1, 5]: ≤ 1 µM
minimal effective concentration (D. immitis L4 larvae): 0.001 µM
DiMf/DiL4 (D. immitis L4 larvae): 0.3
minimal effective concentration [2]: 0.0003 µM

CC(C)C[C@H]1C(=O)O[C@H](Cc2ccc(Cc3cccc(F)n3)cc2)C(=O)N(C)[C@@H](CC(C)C)C(=O)O[C@H](C)C(=O)N(C)[C@@H](CC(C)C)C(=O)O[C@H](Cc2ccc(Cc3cccc(F)n3)cc2)C(=O)N(C)[C@@H](CC(C)C)C(=O)O[C@H](C)C(=O)N1C [Example 3-313, (3S,6R,9S,12R,15S,18R,21S,24R)-6,18-bis(4-((6-fluoropyridin-2-yl)methyl)benzyl)-3,9,15,21-tetraisobutyl-4,10,12,16,22,24-hexamethyl-1,7,13,19-tetraoxa-4,10,16,22-tetraazacyclotetracosan-2,5,8,11,14,17,20,23-octaone]
minimal effective concentration [1, 4]: 0.55 µM
minimal effective concentration (D. immitis L4 larvae): 0.00055 µM
DiMf/DiL4 (D. immitis L4 larvae): 5.5
minimal effective concentration [2]: 0.003 µM

CC(C)C[C@H]1C(=O)O[C@H](Cc2ccc(Cc3cncnc3C(F)(F)F)cc2)C(=O)N(C)[C@@H](CC(C)C)C(=O)O[C@H](C)C(=O)N(C)[C@@H](CC(C)C)C(=O)O[C@H](Cc2ccc(Cc3cncnc3C(F)(F)F)cc2)C(=O)N(C)[C@@H](CC(C)C)C(=O)O[C@H](C)C(=O)N1C [Example 3-318, (3S,6R,9S,12R,15S,18R,21S,24R)-3,9,15,21-tetraisobutyl-4,6,10,16,18,22-hexamethyl-12,24-bis(4-((4-(trifluoromethyl)pyrimidin-5-yl)methyl)benzyl)-1,7,13,19-tetraoxa-4,10,16,22-tetraazacyclotetracosan-2,5,8,11,14,17,20,23-octaone]
minimal effective concentration [1, 4]: 0.55 µM
minimal effective concentration (D. immitis L4 larvae): 3e-05 µM
DiMf/DiL4 (D. immitis L4 larvae): 10
minimal effective concentration [2]: 0.0003 µM

CC(C)C[C@H]1C(=O)O[C@H](Cc2ccc(Cc3cccnc3Cl)cc2)C(=O)N(C)[C@@H](CC(C)C)C(=O)O[C@H](C)C(=O)N(C)[C@@H](CC(C)C)C(=O)O[C@H](Cc2ccc(Cc3cccnc3Cl)cc2)C(=O)N(C)[C@@H](CC(C)C)C(=O)O[C@H](C)C(=O)N1C [Example 3-319, (3S,6R,9S,12R,15S,18R,21S,24R)-6,18-bis(4-((2-chloropyridin-3-yl)methyl)benzyl)-3,9,15,21-tetraisobutyl-4,10,12,16,22,24-hexamethyl-1,7,13,19-tetraoxa-4,10,16,22-tetraazacyclotetracosan-2,5,8,11,14,17,20,23-octaone]
minimal effective concentration [1, 3]: < 1 µM
minimal effective concentration [1, 4]: 0.55 µM
minimal effective concentration [1, 5]: ≤ 1 µM
minimal effective concentration (D. immitis L4 larvae): 5.5e-05 µM
DiMf/DiL4 (D. immitis L4 larvae): 31.5
minimal effective concentration [2]: 0.00173 µM

CC(C)C[C@H]1C(=O)O[C@H](Cc2ccc(Cc3cncnc3C(F)F)cc2)C(=O)N(C)[C@@H](CC(C)C)C(=O)O[C@H](C)C(=O)N(C)[C@@H](CC(C)C)C(=O)O[C@H](Cc2ccc(Cc3cncnc3C(F)F)cc2)C(=O)N(C)[C@@H](CC(C)C)C(=O)O[C@H](C)C(=O)N1C [Example 3-321, (3S,6R,9S,12R,15S,18R,21S,24R)-6,18-bis(4-((4-(difluoromethyl)pyrimidin-5-yl)methyl)benzyl)-3,9,15,21-tetraisobutyl-4,10,12,16,22,24-hexamethyl-1,7,13,19-tetraoxa-4,10,16,22-tetraazacyclotetracosan-2,5,8,11,14,17,20,23-octaone]
minimal effective concentration [1, 3]: < 1 µM
minimal effective concentration [1, 4]: 0.3 µM
minimal effective concentration [1, 5]: ≤ 1 µM
minimal effective concentration (D. immitis L4 larvae): 2e-05 µM
DiMf/DiL4 (D. immitis L4 larvae): 2.5
minimal effective concentration [2]: 5e-05 µM

Cc1cc(F)ncc1Cc1ccc(C[C@H]2OC(=O)[C@H](CC(C)C)N(C)C(=O)[C@@H](C)OC(=O)[C@H](CC(C)C)N(C)C(=O)[C@@H](Cc3ccc(Cc4cnc(F)cc4C)cc3)OC(=O)[C@H](CC(C)C)N(C)C(=O)[C@@H](C)OC(=O)[C@H](CC(C)C)N(C)C2=O)cc1 [Example 3-322, (3S,6R,9S,12R,15S,18R,21S,24R)-6,18-bis(4-((6-fluoro-4-methylpyridin-3-yl)methyl)benzyl)-3,9,15,21-tetraisobutyl-4,10,12,16,22,24-hexamethyl-1,7,13,19-tetraoxa-4,10,16,22-tetraazacyclotetracosan-2,5,8,11,14,17,20,23-octaone]
minimal effective concentration [1, 4]: 10 µM
minimal effective concentration (D. immitis L4 larvae): 0.0003 µM
DiMf/DiL4 (D. immitis L4 larvae): 33.3
minimal effective concentration [2]: 0.01 µM

CC(C)C[C@H]1C(=O)O[C@H](Cc2ccc(Cc3cccnc3F)cc2)C(=O)N(C)[C@@H](CC(C)C)C(=O)O[C@H](C)C(=O)N(C)[C@@H](CC(C)C)C(=O)O[C@H](Cc2ccc(Cc3cccnc3F)cc2)C(=O)N(C)[C@@H](CC(C)C)C(=O)O[C@H](C)C(=O)N1C [Example 3-323, (3S,6R,9S,12R,15S,18R,21S,24R)-6,18-bis(4-((2-fluoropyridin-3-yl)methyl)benzyl)-3,9,15,21-tetraisobutyl-4,10,12,16,22,24-hexamethyl-1,7,13,19-tetraoxa-4,10,16,22-tetraazacyclotetracosan-2,5,8,11,14,17,20,23-octaone]
minimal effective concentration [1, 3]: < 1 µM
minimal effective concentration [1, 4]: 0.3 µM
minimal effective concentration [1, 5]: ≤ 1 µM
minimal effective concentration (D. immitis L4 larvae): 0.0001 µM
DiMf/DiL4 (D. immitis L4 larvae): 10
minimal effective concentration [2]: 0.001 µM

CC(C)C[C@H]1C(=O)O[C@H](Cc2ccc(Cc3ccnc(F)c3F)cc2)C(=O)N(C)[C@@H](CC(C)C)C(=O)O[C@H](C)C(=O)N(C)[C@@H](CC(C)C)C(=O)O[C@H](Cc2ccc(Cc3ccnc(F)c3F)cc2)C(=O)N(C)[C@@H](CC(C)C)C(=O)O[C@H](C)C(=O)N1C [Example 3-326, (3S,6R,9S,12R,15S,18R,21S,24R)-6,18-bis(4-((2,3-difluoropyridin-4-yl)methyl)benzyl)-3,9,15,21-tetraisobutyl-4,10,12,16,22,24-hexamethyl-1,7,13,19-tetraoxa-4,10,16,22-tetraazacyclotetracosan-2,5,8,11,14,17,20,23-octaone]
minimal effective concentration [1, 4]: 10 µM
minimal effective concentration (D. immitis L4 larvae): 0.0003 µM
DiMf/DiL4 (D. immitis L4 larvae): 100
minimal effective concentration [2]: 0.03 µM

CC(C)C[C@H]1C(=O)O[C@H](Cc2ccc(Cc3cccnc3Br)cc2)C(=O)N(C)[C@@H](CC(C)C)C(=O)O[C@H](C)C(=O)N(C)[C@@H](CC(C)C)C(=O)O[C@H](Cc2ccc(Cc3cccnc3Br)cc2)C(=O)N(C)[C@@H](CC(C)C)C(=O)O[C@H](C)C(=O)N1C [Example 3-329, (3S,6R,9S,12R,15S,18R,21S,24R)-6,18-bis(4-((2-bromopyridin-3-yl)methyl)benzyl)-3,9,15,21-tetraisobutyl-4,10,12,16,22,24-hexamethyl-1,7,13,19-tetraoxa-4,10,16,22-tetraazacyclotetracosan-2,5,8,11,14,17,20,23-octaone]
minimal effective concentration [1, 3]: < 1 µM
minimal effective concentration [1, 5]: ≤ 1 µM
minimal effective concentration (D. immitis L4 larvae): 0.0001 µM
DiMf/DiL4 (D. immitis L4 larvae): 10
minimal effective concentration [2]: 0.001 µM

CC(C)C[C@H]1C(=O)O[C@H](Cc2ccc(Cc3cnccc3C(F)(F)F)cc2)C(=O)N(C)[C@@H](CC(C)C)C(=O)O[C@H](C)C(=O)N(C)[C@@H](CC(C)C)C(=O)O[C@H](Cc2ccc(Cc3cnccc3C(F)(F)F)cc2)C(=O)N(C)[C@@H](CC(C)C)C(=O)O[C@H](C)C(=O)N1C [Example 3-333, (3S,6R,9S,12R,15S,18R,21S,24R)-3,9,15,21-tetraisobutyl-4,6,10,16,18,22-hexamethyl-12,24-bis(4-((4-(trifluoromethyl)pyridin-3-yl)methyl)benzyl)-1,7,13,19-tetraoxa-4,10,16,22-tetraazacyclotetracosan-2,5,8,11,14,17,20,23-octaone]
minimal effective concentration [1, 3]: < 1 µM
minimal effective concentration [1, 5]: ≤ 1 µM
minimal effective concentration (D. immitis L4 larvae): 0.0002 µM
DiMf/DiL4 (D. immitis L4 larvae): 17
minimal effective concentration [2]: 0.003 µM
